In patent publication US9073855B2, “BCL-2 selective apoptosis-inducing agents for the treatment of cancer and immune diseases” (AbbVie Inc., priority 2008, dated 2015):

Key:
GST-Bcl-2 = GST-Bcl-2 (Homo sapiens, UniProt P10415); test: TR-FRET binding assay, GST-Bcl-2 with F-Bak peptide probe; conditions: for Ki: TR-FRET Binding Affinity, GST-Bcl-2, F-Bak peptide probe; for Binding selectivity ratio (Bcl-XL Ki/Bcl-2 Ki): ratio of TR-FRET Ki values, Bcl-XL over Bcl-2
Method in brief: (§1)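 Compounds were serially diluted in DMSO from a 50 μM starting solution (2× the starting concentration; 10% DMSO). Plates were incubated for 3 h at room temperature, and TR-FRET was read with 340/35 nm excitation and emission at 520/525 nm (F-Bak) and 495/510 nm (Tb antibody). Ki values were calculated using Wang's competitive-binding equation.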

GST-Bcl-XL = GST-Bcl-XL (Homo sapiens, UniProt Q07817); test: TR-FRET binding assay, GST-Bcl-XL with F-Bak peptide probe; conditions: TR-FRET Binding Affinity, GST-Bcl-XL, F-Bak peptide probe
Method in brief: as §1

FL5.12/Bcl-2 cells = test: FL5.12/Bcl-2 cell viability assay under IL-3 withdrawal (CellTitre Glo); type: cell-based, murine; conditions: Mus musculus, IL-3 withdrawn 48 hrs, then 24 hrs with compound
Method in brief: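 Viability measured by CellTitre Glo after FL5.12/Bcl-2 murine cells, starved of IL-3 for 48 hrs, were treated with compounds for another 24 hrs. Killing reflects inhibition of Bcl-2 sequestration of Bim and Puma.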

GST-Bcl-XL, sequence (Q07817 whole entry): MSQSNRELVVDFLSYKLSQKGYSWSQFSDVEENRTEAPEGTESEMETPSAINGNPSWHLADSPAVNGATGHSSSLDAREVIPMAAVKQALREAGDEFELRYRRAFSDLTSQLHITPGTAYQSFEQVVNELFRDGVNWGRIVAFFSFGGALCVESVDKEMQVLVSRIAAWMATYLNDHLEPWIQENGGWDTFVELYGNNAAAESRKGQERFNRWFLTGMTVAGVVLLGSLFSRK
GST-Bcl-2, sequence (P10415 whole entry): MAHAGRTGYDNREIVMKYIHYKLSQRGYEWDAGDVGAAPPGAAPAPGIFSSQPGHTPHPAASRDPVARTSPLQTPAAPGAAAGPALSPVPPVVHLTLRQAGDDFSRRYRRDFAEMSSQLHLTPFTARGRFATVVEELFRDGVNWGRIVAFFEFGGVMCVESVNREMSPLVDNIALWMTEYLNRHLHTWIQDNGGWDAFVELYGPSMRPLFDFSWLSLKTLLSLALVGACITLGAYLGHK

Compound `CC1(C)CCC(CN2CCN(c3ccc(C(=O)NS(=O)(=O)c4ccc(NC5CCS(=O)(=O)C5)c([N+](=O)[O-])c4)c(Oc4cccc5[nH]ccc45)c3)CC2)=C(c2ccc(Cl)cc2)C1` (centres unmarked) [Example 299, 4-(4-{[2-(4-chlorophenyl)-4,4-dimethylcyclohex-1-en-1-yl]methyl}piperazin-1-yl)-N-({4-[(1,1-dioxidotetrahydrothien-3-yl)amino]-3-nitrophenyl}sulfonyl)-2-(1H-indol-4-yloxy)benzamide] has a Ki (GST-Bcl-2) of 0.425 nM, a Ki (GST-Bcl-XL) of 246 nM and an EC50 (FL5.12/Bcl-2 cells) of 77.2 nM.

With `CNc1ccc(S(=O)(=O)NC(=O)c2ccc(N3CCN(CC4=C(c5ccc(Cl)cc5)CC(C)(C)CC4)CC3)cc2Oc2ccc3[nH]ccc3c2)cc1S(=O)(=O)C(F)(F)F` [Example 328, 4-(4-{[2-(4-chlorophenyl)-4,4-dimethylcyclohex-1-en-1-yl]methyl}piperazin-1-yl)-2-(1H-indol-5-yloxy)-N-({4-(methylamino)-3-[(trifluoromethyl)sulfonyl]phenyl}sulfonyl)benzamide] the Ki (GST-Bcl-2) was 1.86 nM, the Ki (GST-Bcl-XL) was > 660 nM and the EC50 (FL5.12/Bcl-2 cells) was > 500 nM.

In the case of `CC1(C)CCC(CN2CCN(c3ccc(C(=O)NS(=O)(=O)c4cnc(OCC5CCOCC5)c(C#N)c4)c(Oc4cccc5[nH]ccc45)c3)CC2)=C(c2ccc(Cl)cc2)C1` [Example 386, 4-(4-{[2-(4-chlorophenyl)-4,4-dimethylcyclohex-1-en-1-yl]methyl}piperazin-1-yl)-N-{[5-cyano-6-(tetrahydro-2H-pyran-4-ylmethoxy)pyridin-3-yl]sulfonyl}-2-(1H-indol-4-yloxy)benzamide], the Ki (GST-Bcl-2) is reported as 0.239 nM, the Ki (GST-Bcl-XL) is reported as 118 nM and the EC50 (FL5.12/Bcl-2 cells) is reported as 154 nM.

In the case of `CC1(C)CCC(CN2CCN(c3ccc(C(=O)NS(=O)(=O)c4ccc(NC5CCN(CCCC(F)(F)F)CC5)c([N+](=O)[O-])c4)c(Oc4cccc5[nH]ccc45)c3)CC2)=C(c2ccc(Cl)cc2)C1` [Example 210, 4-(4-{[2-(4-chlorophenyl)-4,4-dimethylcyclohex-1-en-1-yl]methyl}piperazin-1-yl)-2-(1H-indol-4-yloxy)-N-[(3-nitro-4-{[1-(4,4,4-trifluorobutyl)piperidin-4-yl]amino}phenyl)sulfonyl]benzamide], the Ki (GST-Bcl-2) is reported as 0.624 nM, the Ki (GST-Bcl-XL) is reported as > 660 nM and the EC50 (FL5.12/Bcl-2 cells) is reported as 257 nM.

For `CN1CCN(Nc2ccc(S(=O)(=O)NC(=O)c3ccc(N4CCN(CC5=C(c6ccc(Cl)cc6)CC(C)(C)CC5)CC4)cc3Oc3cccc4[nH]ccc34)cc2S(=O)(=O)C(F)(F)F)CC1` [Example 215, 4-(4-{[2-(4-chlorophenyl)-4,4-dimethylcyclohex-1-en-1-yl]methyl}piperazin-1-yl)-2-(1H-indol-4-yloxy)-N-({4-[(4-methylpiperazin-1-yl)amino]-3-[(trifluoromethyl)sulfonyl]phenyl}sulfonyl)benzamide], the Ki (GST-Bcl-2) was 0.503 nM, the Ki (GST-Bcl-XL) was 60.8 nM and the EC50 (FL5.12/Bcl-2 cells) was 116 nM.

For `CC1(C)CCC(CN2CCN(c3ccc(C(=O)NS(=O)(=O)c4ccc(NC5CCN(C6Cc7ccccc7C6)CC5)c([N+](=O)[O-])c4)c(Oc4cccc5[nH]ccc45)c3)CC2)=C(c2ccc(Cl)cc2)C1` [Example 227, 4-(4-{[2-(4-chlorophenyl)-4,4-dimethylcyclohex-1-en-1-yl]methyl}piperazin-1-yl)-N-[(4-{[1-(2,3-dihydro-1H-inden-2-yl)piperidin-4-yl]amino}-3-nitrophenyl)sulfonyl]-2-(1H-indol-4-yloxy)benzamide], the Ki (GST-Bcl-2) was 6.83 nM, the Ki (GST-Bcl-XL) was > 660 nM and the EC50 (FL5.12/Bcl-2 cells) was > 500 nM.

`CC1(C)CCC(CN2CCN(c3ccc(C(=O)NS(=O)(=O)c4ccc(NCCCN5CCNC(=O)C5)c([N+](=O)[O-])c4)c(Oc4cccc5[nH]ccc45)c3)CC2)=C(c2ccc(Cl)cc2)C1` [Example 223, 4-(4-{[2-(4-chlorophenyl)-4,4-dimethylcyclohex-1-en-1-yl]methyl}piperazin-1-yl)-2-(1H-indol-4-yloxy)-N-[(3-nitro-4-{[3-(3-oxopiperazin-1-yl)propyl]amino}phenyl)sulfonyl]benzamide] was tested, and the Ki (GST-Bcl-2) was 0.169 nM, the Ki (GST-Bcl-XL) was 97.3 nM and the EC50 (FL5.12/Bcl-2 cells) was 37.1 nM.

For `CC1(C)CCC(CN2CCN(c3ccc(C(=O)NS(=O)(=O)c4ccc(S(=O)(=O)N5CCOCC5)cc4)c(Oc4ccc5[nH]ccc5c4)c3)CC2)=C(c2ccc(Cl)cc2)C1` [Example 361, 4-(4-{[2-(4-chlorophenyl)-4,4-dimethylcyclohex-1-en-1-yl]methyl}piperazin-1-yl)-2-(1H-indol-5-yloxy)-N-{[4-(morpholin-4-ylsulfonyl)phenyl]sulfonyl}benzamide], the Ki (GST-Bcl-2) was 7.13 nM, the Ki (GST-Bcl-XL) was > 660 nM and the EC50 (FL5.12/Bcl-2 cells) was > 500 nM.

With `CC1(C)CCC(CN2CCN(c3ccc(C(=O)NS(=O)(=O)c4ccc(NCC5CN(C6CC6)CCO5)c([N+](=O)[O-])c4)c(Oc4cccc5[nH]ncc45)c3)CC2)=C(c2ccc(Cl)cc2)C1` (centres unmarked) [Example 411, 4-(4-{[2-(4-chlorophenyl)-4,4-dimethylcyclohex-1-en-1-yl]methyl}piperazin-1-yl)-N-[(4-{[(4-cyclopropylmorpholin-2-yl)methyl]amino}-3-nitrophenyl)sulfonyl]-2-(1H-indazol-4-yloxy)benzamide] the Ki (GST-Bcl-2) was 0.003 nM, the “Binding selectivity ratio (Bcl-XL Ki/Bcl-2 Ki)” value (GST-Bcl-2) was 2352.3 and the Ki (GST-Bcl-XL) was 7.45 nM. It also gave an EC50 (FL5.12/Bcl-2 cells) of 11.4 nM.

With `CC1(C)CCC(CN2CCN(c3ccc(C(=O)NS(=O)(=O)c4ccc(NCC5COCCO5)c([N+](=O)[O-])c4)c(Oc4ccc5[nH]ccc5c4)c3)CC2)=C(c2ccc(Cl)cc2)C1` (centres unmarked) [Example 336, 4-(4-{[2-(4-chlorophenyl)-4,4-dimethylcyclohex-1-en-1-yl]methyl}piperazin-1-yl)-N-({4-[(1,4-dioxan-2-ylmethyl)amino]-3-nitrophenyl}sulfonyl)-2-(1H-indol-5-yloxy)benzamide] the Ki (GST-Bcl-2) was 0.105 nM, the Ki (GST-Bcl-XL) was 242 nM and the EC50 (FL5.12/Bcl-2 cells) was 7.49 nM.

`CC1(C)CCC(CN2CCN(c3ccc(C(=O)NS(=O)(=O)c4ccc(NCC(F)F)c([N+](=O)[O-])c4)c(Oc4ccc5[nH]ccc5c4)c3)CC2)=C(c2ccc(Cl)cc2)C1` [Example 302, 4-(4-{[2-(4-chlorophenyl)-4,4-dimethylcyclohex-1-en-1-yl]methyl}piperazin-1-yl)-N-({4-[(2,2-difluoroethyl)amino]-3-nitrophenyl}sulfonyl)-2-(1H-indol-5-yloxy)benzamide] was tested, and the Ki (GST-Bcl-2) was 0.504 nM, the Ki (GST-Bcl-XL) was > 660 nM and the EC50 (FL5.12/Bcl-2 cells) was 32.4 nM.

`CC1(C)CCC(CN2CCN(c3ccc(C(=O)NS(=O)(=O)c4ccc(NCC5CCOCC5)c([N+](=O)[O-])c4)c(Oc4cccc5c4CCNC5)c3)CC2)=C(c2ccc(Cl)cc2)C1` [Example 399, 4-(4-{[2-(4-chlorophenyl)-4,4-dimethylcyclohex-1-en-1-yl]methyl}piperazin-1-yl)-N-({3-nitro-4-[(tetrahydro-2H-pyran-4-ylmethyl)amino]phenyl}sulfonyl)-2-(1,2,3,4-tetrahydroisoquinolin-5-yloxy)benzamide] was tested, and the Ki (GST-Bcl-2) was 2.92 nM, the “Binding selectivity ratio (Bcl-XL Ki/Bcl-2 Ki)” value (GST-Bcl-2) was >225764.5 and the Ki (GST-Bcl-XL) was > 660000 nM. The EC50 (FL5.12/Bcl-2 cells) was > 500 nM.

In the case of `CC1(C)CCC(CN2CCN(c3ccc(C(=O)NS(=O)(=O)c4ccc(NCC5CCOCC5)c([N+](=O)[O-])c4)c(Oc4cccc5[nH]ccc45)c3)CC2)=C(c2ccc(Cl)cc2)C1` [Example 244, 4-(4-{[2-(4-chlorophenyl)-4,4-dimethylcyclohex-1-en-1-yl]methyl}piperazin-1-yl)-2-(1H-indol-4-yloxy)-N-({3-nitro-4-[(tetrahydro-2H-pyran-4-ylmethyl)amino]phenyl}sulfonyl)benzamide], the Ki (GST-Bcl-2) is reported as 0.16 nM, the Ki (GST-Bcl-XL) is reported as > 660 nM and the EC50 (FL5.12/Bcl-2 cells) is reported as 20.2 nM.

In the case of `CC1(C)CCC(CN2CCN(c3ccc(C(=O)NS(=O)(=O)c4ccc(NC5CCN(CCCO)CC5)c([N+](=O)[O-])c4)c(Oc4ccc5[nH]ccc5c4)c3)CC2)=C(c2ccc(Cl)cc2)C1` [Example 197, 4-(4-{[2-(4-chlorophenyl)-4,4-dimethylcyclohex-1-en-1-yl]methyl}piperazin-1-yl)-N-[(4-{[1-(3-hydroxypropyl)piperidin-4-yl]amino}-3-nitrophenyl)sulfonyl]-2-(1H-indol-5-yloxy)benzamide], the Ki (GST-Bcl-2) is reported as 0.025 nM, the Ki (GST-Bcl-XL) is reported as 4.84 nM and the EC50 (FL5.12/Bcl-2 cells) is reported as 6.18 nM.

For `CC1(C)CCC(CN2CCN(c3ccc(C(=O)NS(=O)(=O)c4cccc(C(=O)NCC5CCOCC5)c4)c(Oc4ccc5[nH]ccc5c4)c3)CC2)=C(c2ccc(Cl)cc2)C1` [Example 345, 4-(4-{[2-(4-chlorophenyl)-4,4-dimethylcyclohex-1-en-1-yl]methyl}piperazin-1-yl)-2-(1H-indol-5-yloxy)-N-[(3-{[(tetrahydro-2H-pyran-4-ylmethyl)amino]carbonyl}phenyl)sulfonyl]benzamide], the Ki (GST-Bcl-2) was 1.15 nM, the Ki (GST-Bcl-XL) was > 660 nM and the EC50 (FL5.12/Bcl-2 cells) was > 500 nM.

`CC(=O)N1CCC(Nc2ccc(S(=O)(=O)NC(=O)c3ccc(N4CCN(CC5=C(c6ccc(Cl)cc6)CC(C)(C)CC5)CC4)cc3Oc3ccc4[nH]ccc4c3)cc2[N+](=O)[O-])CC1` [Example 334, N-({4-[(1-acetylpiperidin-4-yl)amino]-3-nitrophenyl}sulfonyl)-4-(4-{[2-(4-chlorophenyl)-4,4-dimethylcyclohex-1-en-1-yl]methyl}piperazin-1-yl)-2-(1H-indol-5-yloxy)benzamide] was tested, and the Ki (GST-Bcl-2) was 0.179 nM, the Ki (GST-Bcl-XL) was > 660 nM and the EC50 (FL5.12/Bcl-2 cells) was 65.9 nM.

`CC(C)(C)c1ccc(CN2CCN(c3ccc(C(=O)NS(=O)(=O)c4ccc(NCC5CCOCC5)c([N+](=O)[O-])c4)c(Oc4ccc5[nH]ccc5c4)c3)CC2)c(-c2ccc(Cl)cc2)c1` [Example 341, 4-{4-[(5-tert-butyl-4′-chloro-1,1′-biphenyl-2-yl)methyl]piperazin-1-yl}-2-(1H-indol-5-yloxy)-N-({3-nitro-4-[(tetrahydro-2H-pyran-4-ylmethyl)amino]phenyl}sulfonyl)benzamide] was tested, and the Ki (GST-Bcl-2) was 13 nM, the Ki (GST-Bcl-XL) was > 660 nM and the EC50 (FL5.12/Bcl-2 cells) was > 500 nM.
